Results published in patent publication US20120308554A1, “VEGF-D/VEGFR2/3-MEDIATED REGULATION OF DENDRITES” (UNIVERSITAT HEIDELBERG, priority 2011, published 2012).
Where two headings read alike, the source gives them in different places.

What was measured:
Assay type in all cases: cell-based, mice
hippocampal neurons = assay: Morphometric analyses (total dendritic length, Sholl analysis, spine density) of cultured hippocampal neurons; conditions: for total dendritic length and dendritic complexity (Sholl analysis): neurons expressing the construct versus control constructs; for rescue of reduction in dendrite length and complexity caused by CaMBP4 or CaMKIVK75E: recombinant factors 100 ng/ml for 3 days, or VEGFD-HA expression
Method: Hippocampal neurons from newborn C57BL/6 mice were cultured as known in the art. Experiments were done after a culturing period of 10 to 14 days in vitro (DIV). DNA transfection was done on DIV8 using Lipofectamine 2000 (Invitrogen, San Diego, Calif.). For the studies on dendrite morphology, neurons were analyzed 4-5 days after transfection.
For 3D Sholl Analysis, total dendritic length and spine morphology were calculated using Object-Image freeware software with a specific set of macros (written by Dr. E. Ruthazer, McGill University, Quebec). Briefly, a z-Stack acquisition was imported, calibrated in Object-Image and manually traced. Total dendritic length was then computed. For Sholl analysis, the shell interval was set at 5 μm. All analyses were performed blind. In all in vitro experiments, for each condition, a minimum of 12 neurons from three independent preparations was analyzed. For the Golgi staining quantifications of 20 neurons for each condition from 4 different injected animals per viral construct were traced and analyzed.
Hippocampal neurons were fixed with 4% paraformaldehyde at room temperature for 20 min. For immunostaining, primary and secondary antibodies were applied in GDB buffer (30 mM phosphate buffer [pH7.4] containing 0.2% gelatin, 0.5% Triton X-100, and 0.9 M NaCl). For the morphometric analyses, fluorescence images were acquired using a confocal laser-scanning microscope TCS SP2 (Leica, Mannheim, Germany) equipped with an inverted fluorescence microscope DM IRE2 (Leica) and Leica confocal scan software. All images were obtained with sequential acquisition setting at a resolution of 1024×1024 pixels. Each image was a z series projection of images taken at 1 μm intervals.

[1] = system: VEGFD, VEGF, VEGFC and VEGFR3; assay: qRT-PCR analysis of shRNA knock-down of VEGF family members; conditions: hippocampal neurons infected with rAAV
Method: Total RNA was isolated at DIV10 to DIV13 from hippocampal primary neuron cultures or isolated brain tissues with Rneasy Mini Kit (Qiagen, Hilden, Germany) including an optional Dnase I treatment at room temperature for 15 min according to manufacturer's instructions (Qiagen). 1.2 μg of extracted RNA was reverse transcribed into first strand cDNA using High Capacity cDNA Reverse Transcription kit (Applied Biosystems, Foster City, Calif.). Quantitative reverse transcriptase PCR (qRT-PCR) was done on an ABI7300 thermal cycler using Universal qRT-PCR master mix with TaqMan Gene Expression Assays for the indicated genes (Applied Biosystems). The following TaqMan Gene Expression Assays were used in this study: Gusb (Mm00446953_m1), cFos (Mm00487425_m1), VEGFD (Mm00438965_m1), VEGFC (Mm01202432_m1), VEGF (Mm01281449_m1), VEGFR3 (Mm01292618_m1), beta-actin (Mm00607939_s1), beta-2 microglobulin (Mm00437762_m1), CBP (Mm01342435_m1), p38 MAPK alpha (Mm00442497_m1), p38 MAPK beta (Mm00440955_m1). Expression of target genes was normalized against the expression of Gusb as endogenous control gene. Data were derived from at least 5 independent experiments. For expression of shRNAs, an rAAV vector containing the U6 promoter for shRNA expression and a CaMKII promoter driving mCherry expression was used. Three different sequences were obtained from Open Biosystems ([…] 2 and […] 3), cloned and tested for silencing efficiency. […] As control, a scramble version of this sequence ([…] ID NO: 2) and the vector carrying only the mCherry ([…]) were used. Shp38alpha [NT] ID NO: 3), shp38beta [NT] ID NO: 4), […] ID NO: 5), […] ID NO: 6) and […] ID NO: 7; sequence obtained from Open Biosystems www.openbiosystems.com) were also cloned into the same vector. CBP expression level was knocked down using a pool of four short interfering RNAs (siRNAs) targeting mouse CBP (Accell siRNA SMARTpool; Thermo Scientific Dharmacon). The SMARTpool is a group of four siRNAs that have been screened to reduce a variety of potential off-target effects including the inclusion of miRNA (microRNA)-like seed motifs. Silencing of GAPDH was measured using Accell mouse GAPDH as a positive control, and as a negative control, a non-targeting Accell mouse siRNA pool was used. In addition, a fluorescently labeled non-targeting Accell mouse siRNA was also used to evaluate penetration efficiency in hippocampal neurons via immunocytochemistry. Briefly, 500 nM siRNAs were supplemented in the serum-free culturing medium at DIV8, and mRNA levels were analyzed at DIV13.

[2] = system: cultured hippocampal neurons; assay: Whole-cell patch clamp recordings of cultured hippocampal neurons
Text: Whole-cell patch clamp recordings were made at room temperature from cultured hippocampal neurons plated on coverslips secured with a platinum ring in a recording chamber (Open access chamber-1, Science Products GmbH, Hofheim, Germany) mounted on a fixed-stage upright microscope (BX51WI, Olympus, Hamburg, Germany). Differential interference contrast optics, infrared illumination and a CCD camera (PCO, Visitron Systems, Puchheim, Germany) connected to a contrast enhancement unit (Argus, Hamamatsu, Herrsching am Ammersee, Germany) were used to view neurons on a video monitor. Recordings were made with a Multiclamp 700A amplifier, digitized through a Digidata 1322A A/D converter and acquired using pClamp software (Molecular Devices, CA, USA). All membrane potentials have been corrected for the calculated junction potential of −11 mV (JPCalc program by Dr. Peter H. Barry). mEPSCs and whole-cell AMPA (10 μM, 6 ml/min, Biotrend) responses were recorded as known in the art except for the solutions and that a holding potential of −71 mV was used and both TTX (1 μM, Biotrend, Cologne, Germany) and gabazine (5 μM, Biotrend) were included in the ACSF. TTX was applied before gabazine to prevent the induction of action potential bursting. Access (range: 7-18 MU) and membrane resistance (see Table 1) were monitored before and after mEPSC recordings and data was rejected if changes greater than 20% occurred.
Patch electrodes (3-4 MU) were made from borosilicate glass (1.5 mm, WPI, Sarasota, Fla., USA) and filled with intracellular solution (containing in mM: KCH3SO4, 145; NaCl, 8; HEPES, 10; K2-phosphocreatine, 10; Mgt-ATP, 4; Na3-GTP, 0.3; pH 7.35 with KOH). The extracellular solution was an artificial cerebrospinal fluid (ACSF, in mM: NaCl, 125; KCl, 3.5; MgCl2, 1.3; NaH2PO4, 1.2; CaCl2, 2.4; glucose, 25; NaHCO3, 26; gassed with 95% O2 and 5% CO2).

VEGFD = assay: qRT-PCR analysis of VEGFD expression in hippocampal neurons
Method: Total RNA was isolated at DIV10 to DIV13 from hippocampal primary neuron cultures or isolated brain tissues with Rneasy Mini Kit (Qiagen, Hilden, Germany) including an optional Dnase I treatment at room temperature for 15 min according to manufacturer's instructions (Qiagen). 1.2 μg of extracted RNA was reverse transcribed into first strand cDNA using High Capacity cDNA Reverse Transcription kit (Applied Biosystems, Foster City, Calif.).
Quantitative reverse transcriptase PCR (qRT-PCR) was done on an ABI7300 thermal cycler using Universal qRT-PCR master mix with TaqMan Gene Expression Assays for the indicated genes (Applied Biosystems). The following TaqMan Gene Expression Assays were used in this study: Gusb (Mm00446953_m1), cFos (Mm00487425_m1), VEGFD (Mm00438965_m1), VEGFC (Mm01202432_m1), VEGF (Mm01281449_m1), VEGFR3 (Mm01292618_m1), beta-actin (Mm00607939_s1), beta-2 microglobulin (Mm00437762_m1), CBP (Mm01342435_m1), p38 MAPK alpha (Mm00442497_m1), p38 MAPK beta (Mm00440955_m1). Expression of target genes was normalized against the expression of Gusb as endogenous control gene. Data were derived from at least 5 independent experiments.

## shVEGF: shRNA specific for VEGF (ACCTCACCAAAGCCAGCAC; SEQ ID NO: 5) [reference compound]
Hippocampal neurons
  total dendritic length and dendritic complexity (Sholl analysis): had no effect on dendrite length or complexity
[1]
  mRNA levels of respective targets: reduced mRNA levels of their respective targets

## shSCR: scramble version of the shVEGFD sequence (GTGCCAAGACGGGTAGTCA; SEQ ID NO: 2), control [reference compound]
[2]; infected neurons
  AP induc thresh (current injection required to induce an action potential): 116 ± 10 pA
  AP thresh (membrane potential at which action potentials initiate): −48.4 ± 1.0 mV
  Cm (membrane capacitance): 102.4 ± 4.4 pF
  Rm (membrane resistance): 275 ± 15 MΩ
  Vrest (resting membrane potential): −78.7 ± 1.7 mV
  mEPSC τ decay: 5.70 ± 0.12 ms
  mEPSC τ rise: 3.36 ± 0.07 ms
[2]; transfected neurons
  AP induc thresh (current injection required to induce an action potential): 125 ± 13 pA
  AP thresh (membrane potential at which action potentials initiate): −44.1 ± 1.6 mV
  Cm (membrane capacitance): 88.6 ± 5.5 pF
  Rm (membrane resistance): 291 ± 32 MΩ
  Vrest (resting membrane potential): −76.5 ± 2.3 mV
  mEPSC τ decay: 6.06 ± 0.07 ms
  mEPSC τ rise: 3.18 ± 0.14 ms
Hippocampal neurons; transfected hippocampal neurons
  spine density (number of spines/20 μm): 6.17±0.56 spines/20 μm

## C[C@]12N[C@H](Cc3ccccc31)c1ccccc12 [MK801, reference compound]
VEGFD
  VEGFD expression (qRT-PCR): significantly reduced the expression of VEGFD mRNA

## shVEGFC: shRNA specific for VEGFC (GTTCATTCCATTATTAGAC; SEQ ID NO: 6) [reference compound]
Hippocampal neurons
  total dendritic length and dendritic complexity (Sholl analysis): had no effect on dendrite length or complexity
[1]
  mRNA levels of respective targets: reduced mRNA levels of their respective targets

## shp38α: shRNA specific for the alpha isoform of p38 MAPK (AAACACGAAAATGTGATTGGT; SEQ ID NO: 3) [reference compound]
Hippocampal neurons; neurons expressing CaMBP4 (and CaMKIVK75E), rVEGFD 3 days
  effect on rVEGFD-induced rescue of dendrite length and complexity: prevented the rVEGFD-induced rescue

## shVEGFR3: shRNA specific for VEGFR3 (CCCAGTATTGTGTGGTACAAA; SEQ ID NO: 7)
Hippocampal neurons
  total dendritic length and dendritic complexity (Sholl analysis): changes in the dendritic structure that were virtually identical to those obtained in hippocampal neurons transfected with pAAV-shVEGFD
[1]
  mRNA levels of respective targets: reduced mRNA levels of their respective targets

## C[S+]([O-])c1ccc(-c2nc(-c3ccncc3)c(-c3ccc(F)cc3)[nH]2)cc1 (stereo not drawn) [SB203580, reference compound]
Hippocampal neurons
  Sholl analysis, SB203580 alone: showed no difference compared to the respective untreated controls
  effect on rVEGFD-induced rescue of dendrite length and complexity: severely compromised the ability of rVEGFD to rescue the impairment of dendrite length and complexity

B1: VEGFD-HA: HA-tagged VEGFD expressed from rAAV plasmid or rAAV (protein, UniProt P97946 94-210, looked up)
Vascular endothelial growth …: FAATFYDTETLKVIDEEWQRTQCSPRETCVEVASELGKTTNTFFKPPCVNVFRCGGCCNEEGVMCMNTSTSYISKQLFEISVPLTSVPELVPVKIANHTGCKCLPTGPRHPYSIIRR
modifications: HA tag
Hippocampal neurons; neurons without nuclear calcium signaling blockade
  neuronal morphology: no detectable effect on neuronal morphology
Hippocampal neurons; rVEGFD 100 ng/ml 3 days or VEGFD-HA expression
  restoration of spine density in CaMBP4 or CaMKIVK75E expressing neurons: failed to restore normal spine density
Hippocampal neurons
  rescue of reduction in dendrite length and complexity caused by CaMBP4 or CaMKIVK75E: rescued the reduction in dendrite length and complexity

B2: resiVEGFD-HA: HA-tagged VEGFD resistant to shVEGFD, expressed from plasmid (protein, UniProt P97946 94-210, looked up)
Vascular endothelial growth …: B1 Vascular endothelial growth …
modifications: HA tag; shRNA-resistant coding sequence
notes: HA-tagged VEGFD resistant to shVEGFD, expressed from plasmid
Hippocampal neurons; pAAV-shVEGFD transfected neurons, rVEGFD 100 ng/ml 3 days or co-transfection
  effect on reduction of dendrite length and complexity caused by shVEGFD: rescued the reduction of dendrite length and complexity

B3: rVEGFC: recombinant mouse VEGFC (Biocat) (protein, UniProt P97953 108-223, looked up)
Vascular endothelial growth …: AHYNTEILKSIDNEWRKTQCMPREVCIDVGKEFGAATNTFFKPPCVSVYRCGGCCNSEGLQCMNTSTGYLSKTLFEITVPLSQGPKPVTISFANHTSCRCMSKLDVYRQVHSIIRR
Hippocampal neurons
  rescue of reduction in dendrite length and complexity caused by CaMBP4 or CaMKIVK75E: neither recombinant VEGF (rVEGF) nor recombinant VEGFC (rVEGFC) was able to rescue
